Residues, ends and D or L forms follow the SMILES beside them. *: point of attachment. Agmatine = N=C(N)NCCCCN*; PhAc = O=C(Cc1ccccc1)*

Data on 16 compounds can be found in ChEMBL document CHEMBL1156804, “Potent inhibitors of furin and furin-like proprotein convertases containing decarboxylated P1 arginine mimetics” (J Med Chem, 2010).

For experiment [1], the target named is Furin (Homo sapiens, UniProt P09958).
The target of experiment [2] is Coagulation factor X (Homo sapiens, UniProt P00742). As to the kind of experiment: Inhibition of factor 10a.
The target of experiment [3] is Proprotein convertase subtilisin/kexin type 5 (Homo sapiens, UniProt Q92824). The experiment can be described thus: Inhibition of human PC5/6 expressed in Drosophila schneider 2 cells by fluorescence assay. The class given is cell-based.
Experiment [4] addresses Prothrombin (Homo sapiens, UniProt P00734). As to the kind of experiment: Inhibition of thrombin.
Experiment [5] is described as follows: cells. As to conditions: Canis lupus familiaris, MDCK. The class given is cell-based.
The target in experiment [6] is T1, Neuroendocrine convertase 2 (Homo sapiens, UniProt P16519).
T1 sequence (P16519 whole entry): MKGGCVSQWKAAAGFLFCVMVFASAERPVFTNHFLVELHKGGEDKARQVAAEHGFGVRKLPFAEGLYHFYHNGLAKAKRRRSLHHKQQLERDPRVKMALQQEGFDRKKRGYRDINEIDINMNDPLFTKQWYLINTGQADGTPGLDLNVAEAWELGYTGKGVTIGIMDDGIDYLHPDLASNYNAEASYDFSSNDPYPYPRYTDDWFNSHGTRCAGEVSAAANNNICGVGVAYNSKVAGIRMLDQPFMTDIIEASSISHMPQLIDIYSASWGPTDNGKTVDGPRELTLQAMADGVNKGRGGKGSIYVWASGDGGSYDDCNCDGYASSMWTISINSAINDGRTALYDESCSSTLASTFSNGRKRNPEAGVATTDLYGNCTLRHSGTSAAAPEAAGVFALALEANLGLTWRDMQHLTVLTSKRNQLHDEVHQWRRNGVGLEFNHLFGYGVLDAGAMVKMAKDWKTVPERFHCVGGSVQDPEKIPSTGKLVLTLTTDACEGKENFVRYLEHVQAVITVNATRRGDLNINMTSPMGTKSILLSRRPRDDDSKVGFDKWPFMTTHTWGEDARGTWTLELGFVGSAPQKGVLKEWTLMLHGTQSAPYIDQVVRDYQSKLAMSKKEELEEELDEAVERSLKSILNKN
The experiment can be described thus: Inhibition of human PC2 expressed in Drosophila schneider 2 cells by fluorescence assay. The class given is cell-based.

For experiment [7], the target named is T2, Proprotein convertase subtilisin/kexin type 7 (Homo sapiens, UniProt Q16549).
T2 sequence (Q16549 whole entry): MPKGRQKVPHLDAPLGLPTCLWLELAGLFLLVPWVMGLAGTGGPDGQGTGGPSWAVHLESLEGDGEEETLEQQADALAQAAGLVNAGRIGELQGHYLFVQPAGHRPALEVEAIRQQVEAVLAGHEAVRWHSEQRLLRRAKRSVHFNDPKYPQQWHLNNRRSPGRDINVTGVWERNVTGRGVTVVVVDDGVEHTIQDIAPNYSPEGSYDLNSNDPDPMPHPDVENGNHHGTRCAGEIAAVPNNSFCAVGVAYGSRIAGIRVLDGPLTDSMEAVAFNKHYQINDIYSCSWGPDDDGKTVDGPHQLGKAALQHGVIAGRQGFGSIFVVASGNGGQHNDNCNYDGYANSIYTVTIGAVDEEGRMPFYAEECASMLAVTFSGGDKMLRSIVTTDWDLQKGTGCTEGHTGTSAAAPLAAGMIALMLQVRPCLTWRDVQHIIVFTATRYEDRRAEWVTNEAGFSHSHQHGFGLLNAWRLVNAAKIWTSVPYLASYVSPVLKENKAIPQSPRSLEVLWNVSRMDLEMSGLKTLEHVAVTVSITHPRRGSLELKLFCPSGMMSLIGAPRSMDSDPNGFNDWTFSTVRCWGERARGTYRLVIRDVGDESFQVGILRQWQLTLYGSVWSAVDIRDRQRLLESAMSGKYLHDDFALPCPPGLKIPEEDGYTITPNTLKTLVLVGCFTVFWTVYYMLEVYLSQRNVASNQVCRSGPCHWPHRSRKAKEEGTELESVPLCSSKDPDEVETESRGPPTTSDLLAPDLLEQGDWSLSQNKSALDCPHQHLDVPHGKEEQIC
As to the kind of experiment: Inhibition of human PC7 expressed in Drosophila schneider 2 cells by fluorescence assay. The class given is cell-based.

Experiment [8] has as its target T3, Proprotein convertase subtilisin/kexin type 6 (Homo sapiens, UniProt P29122).
T3 sequence (P29122 whole entry): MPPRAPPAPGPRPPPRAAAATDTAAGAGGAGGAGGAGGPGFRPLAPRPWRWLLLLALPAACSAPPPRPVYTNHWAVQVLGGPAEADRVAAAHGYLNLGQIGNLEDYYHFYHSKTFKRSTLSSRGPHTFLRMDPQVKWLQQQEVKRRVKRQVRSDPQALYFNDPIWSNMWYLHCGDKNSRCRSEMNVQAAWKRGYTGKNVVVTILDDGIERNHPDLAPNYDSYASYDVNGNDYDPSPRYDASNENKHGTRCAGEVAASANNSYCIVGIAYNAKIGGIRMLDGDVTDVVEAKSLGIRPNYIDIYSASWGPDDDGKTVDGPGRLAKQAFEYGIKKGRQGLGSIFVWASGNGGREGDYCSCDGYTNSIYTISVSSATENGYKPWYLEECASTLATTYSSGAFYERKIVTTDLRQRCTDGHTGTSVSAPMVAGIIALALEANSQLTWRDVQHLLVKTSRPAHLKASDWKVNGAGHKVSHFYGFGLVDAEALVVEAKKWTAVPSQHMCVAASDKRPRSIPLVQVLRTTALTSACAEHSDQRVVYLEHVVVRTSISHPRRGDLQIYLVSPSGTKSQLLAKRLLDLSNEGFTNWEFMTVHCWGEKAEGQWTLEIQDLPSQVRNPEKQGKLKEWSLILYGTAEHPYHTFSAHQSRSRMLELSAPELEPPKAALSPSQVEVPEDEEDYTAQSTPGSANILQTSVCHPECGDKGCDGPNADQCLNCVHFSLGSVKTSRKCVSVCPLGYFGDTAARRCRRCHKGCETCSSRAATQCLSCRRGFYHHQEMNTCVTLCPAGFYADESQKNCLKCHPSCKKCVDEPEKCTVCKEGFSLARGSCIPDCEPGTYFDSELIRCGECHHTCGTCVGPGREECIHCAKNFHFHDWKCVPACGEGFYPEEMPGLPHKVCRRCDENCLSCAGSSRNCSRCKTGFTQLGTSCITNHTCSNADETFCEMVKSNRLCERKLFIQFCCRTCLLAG
The experiment can be described thus: Inhibition of human PACE4 expressed in Drosophila schneider 2 cells by fluorescence assay. The class given is cell-based.

Experiment [9] addresses T4, Neuroendocrine convertase 1 (Homo sapiens, UniProt P29120).
T4 sequence (P29120 whole entry): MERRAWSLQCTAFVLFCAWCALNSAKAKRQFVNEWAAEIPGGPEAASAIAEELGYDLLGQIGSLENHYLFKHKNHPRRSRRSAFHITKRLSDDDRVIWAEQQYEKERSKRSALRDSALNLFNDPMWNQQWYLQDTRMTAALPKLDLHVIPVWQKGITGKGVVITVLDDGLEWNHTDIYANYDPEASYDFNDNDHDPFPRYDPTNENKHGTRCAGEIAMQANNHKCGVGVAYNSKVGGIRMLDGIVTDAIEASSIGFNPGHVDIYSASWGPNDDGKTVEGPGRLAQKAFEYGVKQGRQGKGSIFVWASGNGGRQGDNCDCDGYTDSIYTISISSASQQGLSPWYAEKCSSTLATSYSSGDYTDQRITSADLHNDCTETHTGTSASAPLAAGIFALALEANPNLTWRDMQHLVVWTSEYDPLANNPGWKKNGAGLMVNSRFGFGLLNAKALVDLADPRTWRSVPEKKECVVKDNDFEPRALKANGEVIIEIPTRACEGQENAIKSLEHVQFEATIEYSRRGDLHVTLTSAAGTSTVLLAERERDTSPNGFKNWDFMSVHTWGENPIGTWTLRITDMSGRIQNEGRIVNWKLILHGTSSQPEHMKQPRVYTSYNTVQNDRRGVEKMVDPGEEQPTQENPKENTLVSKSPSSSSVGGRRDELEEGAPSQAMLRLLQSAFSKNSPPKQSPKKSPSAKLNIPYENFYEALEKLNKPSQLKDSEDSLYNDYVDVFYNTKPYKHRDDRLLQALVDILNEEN
The experiment can be described thus: Inhibition of human PC1/3 expressed in Drosophila schneider 2 cells by fluorescence assay. The class given is cell-based.

Experiment [10] has as its target Plasminogen (Homo sapiens, UniProt P00747). The experiment can be described thus: Inhibition of plasmin.

Sequence of Plasminogen (P00747 97-580 limits assumed): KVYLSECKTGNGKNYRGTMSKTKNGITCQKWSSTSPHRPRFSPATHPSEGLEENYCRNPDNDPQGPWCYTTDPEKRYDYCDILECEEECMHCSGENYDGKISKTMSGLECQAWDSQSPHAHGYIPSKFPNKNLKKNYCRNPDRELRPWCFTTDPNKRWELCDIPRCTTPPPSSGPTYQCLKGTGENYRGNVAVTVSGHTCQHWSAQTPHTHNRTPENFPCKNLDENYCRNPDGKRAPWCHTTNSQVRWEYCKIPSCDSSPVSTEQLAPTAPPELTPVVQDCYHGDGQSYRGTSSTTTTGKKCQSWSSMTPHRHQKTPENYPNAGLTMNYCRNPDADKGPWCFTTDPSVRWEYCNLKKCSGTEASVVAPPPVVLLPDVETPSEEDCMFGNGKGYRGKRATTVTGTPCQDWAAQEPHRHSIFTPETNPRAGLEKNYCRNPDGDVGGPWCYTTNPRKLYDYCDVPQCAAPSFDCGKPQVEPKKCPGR
Sequence of Plasminogen (P00747 581-810 limits assumed): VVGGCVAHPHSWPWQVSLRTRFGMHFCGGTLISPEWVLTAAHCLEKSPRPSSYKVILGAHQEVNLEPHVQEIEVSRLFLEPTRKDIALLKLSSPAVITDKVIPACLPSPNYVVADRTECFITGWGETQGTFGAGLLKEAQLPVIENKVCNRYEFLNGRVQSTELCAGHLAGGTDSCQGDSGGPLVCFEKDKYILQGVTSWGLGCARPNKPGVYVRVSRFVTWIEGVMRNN
Sequence of Furin (P09958 whole entry): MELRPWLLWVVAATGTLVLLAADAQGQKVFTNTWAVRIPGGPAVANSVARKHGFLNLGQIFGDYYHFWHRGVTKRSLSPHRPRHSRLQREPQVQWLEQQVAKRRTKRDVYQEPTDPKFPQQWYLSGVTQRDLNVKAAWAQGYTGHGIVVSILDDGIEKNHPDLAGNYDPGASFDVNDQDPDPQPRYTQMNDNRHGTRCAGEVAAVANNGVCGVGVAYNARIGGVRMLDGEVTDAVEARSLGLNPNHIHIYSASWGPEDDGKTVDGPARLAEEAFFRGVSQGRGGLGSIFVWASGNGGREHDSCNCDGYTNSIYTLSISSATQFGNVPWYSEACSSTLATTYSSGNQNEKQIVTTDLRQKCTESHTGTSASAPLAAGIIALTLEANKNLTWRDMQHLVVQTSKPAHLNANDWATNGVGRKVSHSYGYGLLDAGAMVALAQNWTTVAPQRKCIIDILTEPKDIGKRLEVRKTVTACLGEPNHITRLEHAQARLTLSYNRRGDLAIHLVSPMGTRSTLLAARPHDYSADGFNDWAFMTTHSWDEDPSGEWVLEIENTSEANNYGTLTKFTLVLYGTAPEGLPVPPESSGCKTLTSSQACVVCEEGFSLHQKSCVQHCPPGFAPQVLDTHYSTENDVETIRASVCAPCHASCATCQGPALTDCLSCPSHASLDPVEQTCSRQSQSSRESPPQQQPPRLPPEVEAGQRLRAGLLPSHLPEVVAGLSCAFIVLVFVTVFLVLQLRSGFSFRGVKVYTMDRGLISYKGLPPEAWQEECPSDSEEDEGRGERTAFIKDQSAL
Sequence of Proprotein convertase subtilisin/kexin type 5 (Q92824 whole entry): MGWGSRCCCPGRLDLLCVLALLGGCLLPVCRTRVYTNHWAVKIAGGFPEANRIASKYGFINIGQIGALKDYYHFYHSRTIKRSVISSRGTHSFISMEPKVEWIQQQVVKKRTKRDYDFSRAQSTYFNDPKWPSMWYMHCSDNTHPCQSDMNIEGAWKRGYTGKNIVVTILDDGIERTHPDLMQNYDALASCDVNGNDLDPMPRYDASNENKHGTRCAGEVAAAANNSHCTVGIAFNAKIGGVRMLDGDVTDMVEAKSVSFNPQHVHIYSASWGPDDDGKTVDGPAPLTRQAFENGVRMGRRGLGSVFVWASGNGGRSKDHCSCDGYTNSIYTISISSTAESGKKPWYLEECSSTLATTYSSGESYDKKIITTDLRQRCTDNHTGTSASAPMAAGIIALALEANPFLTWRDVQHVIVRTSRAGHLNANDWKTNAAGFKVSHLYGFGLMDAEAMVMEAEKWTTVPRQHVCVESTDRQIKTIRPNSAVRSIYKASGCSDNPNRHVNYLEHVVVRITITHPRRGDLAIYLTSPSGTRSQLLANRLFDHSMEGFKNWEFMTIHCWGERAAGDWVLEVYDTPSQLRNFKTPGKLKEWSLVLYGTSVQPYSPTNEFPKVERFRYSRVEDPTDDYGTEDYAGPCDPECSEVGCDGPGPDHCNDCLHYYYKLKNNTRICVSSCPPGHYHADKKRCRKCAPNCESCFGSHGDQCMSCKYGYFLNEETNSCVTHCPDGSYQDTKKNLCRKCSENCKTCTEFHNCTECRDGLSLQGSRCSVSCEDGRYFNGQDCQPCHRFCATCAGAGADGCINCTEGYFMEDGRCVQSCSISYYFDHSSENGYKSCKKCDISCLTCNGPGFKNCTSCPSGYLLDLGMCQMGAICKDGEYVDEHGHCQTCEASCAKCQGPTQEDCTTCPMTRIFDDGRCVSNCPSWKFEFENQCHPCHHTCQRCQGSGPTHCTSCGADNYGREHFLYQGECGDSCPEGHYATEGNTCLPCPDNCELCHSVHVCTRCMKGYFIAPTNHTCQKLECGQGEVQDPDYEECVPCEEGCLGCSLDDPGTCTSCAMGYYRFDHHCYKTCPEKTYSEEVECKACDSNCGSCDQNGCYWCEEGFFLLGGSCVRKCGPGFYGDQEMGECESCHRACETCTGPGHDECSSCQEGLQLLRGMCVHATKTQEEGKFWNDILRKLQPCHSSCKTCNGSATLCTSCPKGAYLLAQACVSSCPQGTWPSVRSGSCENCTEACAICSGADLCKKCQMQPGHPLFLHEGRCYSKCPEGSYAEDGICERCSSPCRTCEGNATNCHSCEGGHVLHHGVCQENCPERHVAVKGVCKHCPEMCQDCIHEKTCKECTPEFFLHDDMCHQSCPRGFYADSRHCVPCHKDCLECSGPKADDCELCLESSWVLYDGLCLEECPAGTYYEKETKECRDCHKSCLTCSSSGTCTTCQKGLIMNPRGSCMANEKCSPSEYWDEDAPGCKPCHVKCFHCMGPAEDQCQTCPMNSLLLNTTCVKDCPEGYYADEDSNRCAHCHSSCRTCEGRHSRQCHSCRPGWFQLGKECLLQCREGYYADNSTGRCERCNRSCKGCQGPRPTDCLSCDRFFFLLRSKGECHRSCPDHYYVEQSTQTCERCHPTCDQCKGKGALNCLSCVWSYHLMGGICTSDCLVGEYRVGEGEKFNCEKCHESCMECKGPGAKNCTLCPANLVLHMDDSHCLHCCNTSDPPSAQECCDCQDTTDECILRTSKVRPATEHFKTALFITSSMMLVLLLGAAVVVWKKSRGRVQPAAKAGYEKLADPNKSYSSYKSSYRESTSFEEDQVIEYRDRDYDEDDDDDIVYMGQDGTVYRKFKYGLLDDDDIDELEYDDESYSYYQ
Sequence of Coagulation factor X (P00742 41-179 limits assumed): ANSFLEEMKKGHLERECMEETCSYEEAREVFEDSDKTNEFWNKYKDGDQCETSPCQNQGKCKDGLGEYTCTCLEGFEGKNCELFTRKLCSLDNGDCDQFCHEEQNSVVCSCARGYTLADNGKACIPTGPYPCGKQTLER
Sequence of Coagulation factor X (P00742 235-488 limits assumed): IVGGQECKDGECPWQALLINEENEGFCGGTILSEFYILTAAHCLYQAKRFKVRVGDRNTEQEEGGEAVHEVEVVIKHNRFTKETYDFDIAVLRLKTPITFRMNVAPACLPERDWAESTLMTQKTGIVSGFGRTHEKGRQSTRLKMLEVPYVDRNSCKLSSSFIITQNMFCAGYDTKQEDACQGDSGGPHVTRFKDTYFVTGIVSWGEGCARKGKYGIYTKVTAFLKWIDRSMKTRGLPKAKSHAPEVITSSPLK

With `CCCCCCCCCC(=O)N[C@@H](CCCN=C(N)N)C(=O)N[C@H](C(=O)N[C@@H](CCCCN)C(=O)NCc1ccc(C(=N)N)cc1)C(C)C`, the affinity in [1], expressed as Ki, was 3.3 nM.
In the case of `CC(C)[C@H](NC(=O)[C@H](CCCNC(=N)N)NC(=O)Cc1ccccc1)C(=O)N[C@@H](CCCNC(=N)N)C(=O)NCc1ccc(C(=N)N)cc1`, the Ki (usually a measure of affinity in units of concentration, obtained from inhibition or displacement) in [2] is 40 µM; in experiment [3], 1.6 nM; in experiment [4] it was 23 µM; in experiment [6], 312 nM; in experiment [7], 6.15 µM; in experiment [8], 0.6 nM. Further, the Ki came out at 0.75 nM in experiment [9] and 6 µM in experiment [10]. Moreover, in experiment [5], it took 10 µM to reach half-maximal inhibition (IC50).
In experiment [1], `CC(C)[C@H](NC(=O)[C@H](CCCN=C(N)N)NC(=O)Cc1ccccc1)C(=O)N[C@@H](CCCN=C(N)N)C(=O)NCc1cccc(CN=C(N)N)c1` registered a Ki of 2730 nM.
Same read-out and setting: as for `CC(C)[C@H](NC(=O)[C@H](CCCN=C(N)N)NC(=O)Cc1ccccc1)C(=O)N[C@@H](CCCN=C(N)N)C(=O)NCc1ccc(CN=C(N)N)cc1`, the figure is 1430 nM.
As to `CC(C)[C@H](NC(=O)[C@H](CCCNC(=N)N)NC(=O)Cc1ccccc1)C(=O)N[C@@H](CCCNC(=N)N)C(=O)NCC1CCN(C(=N)N)CC1`, the Ki is 53 nM in [1]; 123 µM in experiment [2]; 173 nM in [3]; 50 µM in experiment [4]; above 10000 nM in experiment [6]; above 10 µM in experiment [7]. In addition, the Ki was 67 nM in [8], 70 nM in experiment [9] and above 1000 µM in experiment [10].
With `CC(C)[C@H](NC(=O)[C@H](CCCN=C(N)N)NC(=O)Cc1ccccc1)C(=O)N[C@@H](CCCN=C(N)N)C(=O)NCc1cccc(CN)c1`, in experiment [1], the Ki was determined as 1320 nM.
As for `CCCCCCCCCC(=O)N[C@@H](CCCN=C(N)N)C(=O)N[C@H](C(=O)N[C@@H](CCCN=C(N)N)C(=O)NCc1ccc(C(=N)N)cc1)C(C)C`, the Ki in experiment [1] is 1.6 nM; in [3], 6.3 nM; in experiment [6] it was 55 nM; in experiment [7] it was 0.968 µM; in experiment [8], 3 nM; in experiment [9], 3.65 nM.
The compound `CC(C)[C@H](NC(=O)[C@H](CCCNC(=N)N)NC(=O)Cc1ccccc1)C(=O)N[C@@H](CCCNC(=N)N)C(=O)NCCCCCN` showed a Ki in [1] of 553 nM.
Same read-out and setting: as for `CC(C)[C@H](NC(=O)[C@H](CCCN=C(N)N)NC(=O)Cc1ccccc1)C(=O)N[C@@H](CCCN=C(N)N)C(=O)NCCCN=C(N)N`, the figure is 63 nM; as for `CC(C)[C@H](NC(=O)[C@H](CCCN=C(N)N)NC(=O)Cc1ccccc1)C(=O)N[C@@H](CCCN=C(N)N)C(=O)NCCCCN`, 7490 nM.
On the same count and under the same terms, in the case of `CC(C)[C@H](NC(=O)[C@H](CCCN=C(N)N)NC(=O)Cc1ccccc1)C(=O)N[C@@H](CCCN=C(N)N)C(=O)NCCCCCN=C(N)N` it was 1070 nM; in that of `CC(C)[C@H](NC(=O)[C@H](CCCN=C(N)N)NC(=O)Cc1ccccc1)C(=O)N[C@@H](CCCN=C(N)N)C(=O)NCC1CCNCC1`, 9710 nM.
In the case of `CC(=O)N[C@@H](CCCNC(=N)N)C(=O)N[C@H](C(=O)N[C@@H](CCCNC(=N)N)C(=O)NCc1ccc(C(=N)N)cc1)C(C)C`, the Ki in experiment [1] is 1 nM; in [3], 3.6 nM; in experiment [6], 1390 nM; in experiment [7], 5.13 µM; in [8], 2.4 nM; in experiment [9], 1.7 nM.
Compound `CC(C)[C@H](NC(=O)[C@H](CCCNC(=N)N)NC(=O)Cc1ccccc1)C(=O)N[C@@H](CCCNC(=N)N)C(=O)NCCCN` yielded a Ki in [1] of 3020 nM.
Same read-out and setting: as for `CC(C)[C@H](NC(=O)[C@H](CCCNC(=N)N)NC(=O)Cc1ccccc1)C(=O)N[C@@H](CCCNC(=N)N)C(=O)NCc1ccc(CN)cc1`, the figure is 627 nM.
Consider `CC(C)[C@H](NC(=O)[C@H](CCCNC(=N)N)NC(=O)Cc1ccccc1)C(=O)N[C@@H](CCCNC(=N)N)C(=O)NCCCCNC(=N)N` (PhAc-Arg-Val-Arg-Agmatine), for which the Ki in experiment [1] was 78 nM; in experiment [2] it was 83 µM; in experiment [3] it was 85 nM; in [4], 102 µM; in [6] it was above 10000 nM; in experiment [7], above 10 µM. Also, the Ki in experiment [8] turned out to be 42 nM; in [9], 53 nM; in experiment [10], 97 µM.
